Data: patent publication US20150086530A1, “DOSING REGIMENS FOR THE TREATMENT OF POMPE DISEASE” (Amicus Therapeutics, Inc., priority 2012, published 2015)
“And” between values parts separate entries of the source, which are not always exact repeats. Identical values can stand only once. Like-named read-outs stand apart in the source and are kept apart here.

Experiment: Plasma AT2220 (1-deoxynojirimycin hydrochloride) pharmacokinetics by LC-MS/MS in Pompe patients
Format: in vivo, human
Conditions: for Tmax / half-life / AUC(0-t) / AUC(0-inf) / Cmax: human, plasma, oral; for AUC(0-t): read-out: Plasma AT2220 AUC0-T; for AUC(0-inf): read-out: Plasma AT2220 AUC0-∞; for Cmax: read-out: Plasma AT2220 Cmax
Method: Blood samples for pharmacokinetic analysis will be collected before dosing 1-deoxynojirimycin hydrochloride and at 1 hour after administration of 1-deoxynojirimycin hydrochloride (i.e., immediately before initiation of the alglucosidase alfa infusion) and over the 24-hour period after initiation of the alglucosidase alfa infusion. Plasma and WBC GAA enzyme activity, plasma 1-deoxynojirimycin hydrochloride concentrations and plasma anti-rhGAA antibody titer will be determined from the collected blood samples at the times summarized in Table 2. A 12-lead ECG will be performed at the end of the alglucosidase alfa infusion, immediately after collection of the post-infusion blood sample.
Concentrations of 1-deoxynojirimycin hydrochloride in blood samples will be measured in plasma using a validated LC-MS/MS assay. GAA activity in plasma will be determined by a validated assay measuring enzyme activity using 4-MUG, with and without Con A. GAA protein levels will be measured by Western blotting using anti-human GAA antibody.
Non-compartmental pharmacokinetic parameters of AUC0-t, AUCinfinity, Cmax, tmax, kel and half-life will be calculated from plasma 1-deoxynojirimycin hydrochloride concentrations and plasma rhGAA enzyme levels. Pharmacokinetic parameters will be summarized by treatment using descriptive statistics. The AUC0-t, AUCinfinity ratios for GAA enzyme activity alone or after administration with 1-deoxynojirimycin hydrochloride will be calculated. Pharmacokinetic and pharmacodynamic data for those subjects receiving Myozyme® and Lumizyme® will be analyzed separately.

[1] = Cohort 3, 250 mg AT2220, Max, N=6
[2] = Cohort 3, 250 mg AT2220, Min, N=6
[3] = Cohort 3, 250 mg AT2220, individual subjects
[4] = 50 mg, 50 mg AT2220 (N = 4), Cohort 1, Geometric mean (CV %)
[5] = 100 mg, 100 mg AT2220 (N = 6), Cohort 2, Geometric mean (CV %)
[6] = 250 mg, 250 mg AT2220 (N = 6), Cohort 3, Geometric mean (CV %)
[7] = 250 mg, Cohort 3, 250 mg AT2220, Geometric Mean, N=6
[8] = 250 mg, Cohort 3, 250 mg AT2220, Mean, N=6
[9] = 250 mg, Cohort 3, 250 mg AT2220, Median, N=6

- linearity of plasma pharmacokinetics (50 mg and 100 mg doses): approximately linear
- linearity of plasma pharmacokinetics (50 mg and 100 mg doses, listed as 1-DNJ-HCl): approximately linear PK
- increase in Cmax and AUC with dose (50 mg to 100 mg): ~2 fold
- Plasma AT2220 AUC0-∞ Ratio (100 mg AT2220 (N = 6) relative to 50 mg): 1.9
- AUC0-∞ Ratio, plasma AT2220 (100 mg vs 50 mg dose): 1.9
- Plasma AT2220 AUC0-∞ Ratio (250 mg AT2220 (N = 6) relative to 50 mg): 3.2
- Plasma AT2220 AUC0-T [1]: 29670 ng·h/mL
- Plasma AT2220 AUC0-∞ [1]: 29916 ng·h/mL
- Plasma AT2220 Cmax [1]: 4750 ng/mL
- Plasma AT2220 T½ [1]: 4.6 h
- Plasma AT2220 AUC0-T [2]: 18321 ng·h/mL
- Plasma AT2220 AUC0-∞ [2]: 18711 ng·h/mL
- Plasma AT2220 Cmax [2]: 2090 ng/mL
- Plasma AT2220 Tmax [2]: 2.0 h
- Plasma AT2220 T½ [2]: 3.0 h
- Plasma AT2220 Tmax [3]: 2.0 h
- Tmax (both sexes, 50 mg and 100 mg doses, read-out: rate of absorption (Tmax)): 2 to 3 h
- increase in mean AUC, plasma AT2220 (from 50 mg to 100 mg): 1.9 fold
- increase in mean Cmax, plasma AT2220 (from 50 mg to 100 mg): 1.8 fold
- half-life (50 mg, 50 mg AT2220 (N = 4), Cohort 1, Arithmetic mean (SD), read-out: Plasma AT2220 t½ (converted)): 3.1 h
- AUC(0-t) [4]: 6970 ng·h/mL
- AUC(0-inf) [4]: 7010 ng·h/mL
- Cmax [4]: 1040 ng/mL
- Tmax (50 mg, 50 mg AT2220 (N = 4), Cohort 1, Median (range), read-out: Plasma AT2220 Tmax): 2 h
- half-life (100 mg, 100 mg AT2220 (N = 6), Cohort 2, Arithmetic mean (SD), read-out: Plasma AT2220 t½ (converted)): 3.4 h
- AUC(0-t) [5]: 13000 ng·h/mL
- AUC(0-inf) [5]: 13100 ng·h/mL
- Cmax [5]: 1860 ng/mL
- Tmax (100 mg, 100 mg AT2220 (N = 6), Cohort 2, Median (range), read-out: Plasma AT2220 Tmax): 3 h
- half-life (250 mg, 250 mg AT2220 (N = 6), Cohort 3, Arithmetic mean (SD), read-out: Plasma AT2220 t½ (converted)): 3.7 h
- AUC(0-t) [6]: 21800 ng·h/mL
- AUC(0-inf) [6]: 22100 ng·h/mL
- Cmax [6]: 3150 ng/mL
- Tmax (250 mg, 250 mg AT2220 (N = 6), Cohort 3, Median (range), read-out: Plasma AT2220 Tmax): 2 h
- AUC(0-t) [7]: 21800 ng·h/mL
- AUC(0-inf) [7]: 22100 ng·h/mL
- Cmax [7]: 3150 ng/mL
- Tmax (250 mg, Cohort 3, 250 mg AT2220, Geometric Mean, N=6, read-out: Plasma AT2220 Tmax): 2.3 h
- half-life (250 mg, Cohort 3, 250 mg AT2220, Geometric Mean, N=6, read-out: Plasma AT2220 T½ (converted)): 3.7 h
- AUC(0-t) [8]: 22100 ng·h/mL
- AUC(0-inf) [8]: 22400 ng·h/mL
- Cmax [8]: 3300 ng/mL
- Tmax (250 mg, Cohort 3, 250 mg AT2220, Mean, N=6, read-out: Plasma AT2220 Tmax): 2.3 h
- half-life (250 mg, Cohort 3, 250 mg AT2220, Mean, N=6, read-out: Plasma AT2220 T½ (converted)): 3.7 h
- AUC(0-t) [9]: 20800 ng·h/mL
- AUC(0-inf) [9]: 20900 ng·h/mL
Compound: OC[C@H]1NC[C@H](O)[C@@H](O)[C@@H]1O [AT2220, (2R,3R,4R,5S)-2-hydroxymethyl-piperidine-3,4,5-triol]
- Plasma AT2220 AUC0-T [3]: 19344 ng·h/mL and 29670 ng·h/mL and 22230 ng·h/mL and 18321 ng·h/mL and 24278 ng·h/mL
- Plasma AT2220 AUC0-∞ [3]: 19534 ng·h/mL and 29916 ng·h/mL and 22345 ng·h/mL and 18711 ng·h/mL and 24558 ng·h/mL
- Plasma AT2220 Cmax [3]: 2090 ng/mL and 2740 ng/mL and 4750 ng/mL and 3620 ng/mL and 2350 ng/mL and 4220 ng/mL
